In the NIST ThermoML archive (doi:10.1021/je400835u):
± gives the expanded uncertainty stated by the source.

Experiments:
[1] = 100 kPa, Liquid; for viscosity: Falling or rolling sphere viscometry; for mass density: Vibrating tube method
[2] = xn = mol fraction of the nth substance listed; settings: 100 kPa, Liquid, x2 = 0; for viscosity: Falling or rolling sphere viscometry; for mass density: Vibrating tube method

Row | SMILES | viscosity ([1]; 293.15 K) [mPa·s] | mass density ([1]; 293.15 K) [kg/m3] | viscosity ([1]; 298.15 K) [mPa·s] | mass density ([1]; 298.15 K) [kg/m3] | viscosity ([1]; 303.15 K) [mPa·s] | mass density ([1]; 303.15 K) [kg/m3] | viscosity ([1]; 308.15 K) [mPa·s] | mass density ([1]; 308.15 K) [kg/m3] | viscosity ([1]; 313.15 K) [mPa·s] | mass density ([1]; 313.15 K) [kg/m3] | viscosity ([2]; 293.15 K) [mPa·s] | mass density ([2]; 293.15 K) [kg/m3] | viscosity ([2]; 298.15 K) [mPa·s] | mass density ([2]; 298.15 K) [kg/m3] | viscosity ([2]; 303.15 K) [mPa·s] | mass density ([2]; 303.15 K) [kg/m3] | viscosity ([2]; 308.15 K) [mPa·s] | mass density ([2]; 308.15 K) [kg/m3] | viscosity ([2]; 313.15 K) [mPa·s] | mass density ([2]; 313.15 K) [kg/m3]
1 | CCCCC1CCCCC1 [butylcyclohexane] | 1.296 ± 0.014 | 799.44 ± 0.15 | 1.196 ± 0.013 | 795.7 ± 0.15 | 1.107 ± 0.013 | 791.95 ± 0.15 | 1.027 ± 0.013 | 788.19 ± 0.15 | 0.958 ± 0.012 | 784.41 ± 0.15 | – | – | – | – | – | – | – | – | – | –
2 | CCCCCCCCCC [decane] | 0.93 ± 0.012 | 730.52 ± 0.16 | 0.864 ± 0.012 | 726.76 ± 0.16 | 0.806 ± 0.012 | 722.97 ± 0.16 | 0.755 ± 0.011 | 719.17 ± 0.16 | 0.709 ± 0.011 | 715.36 ± 0.17 | – | – | – | – | – | – | – | – | – | –
3 | CCCCCCCCCC [decane] + CCCCC1CCCCC1 | – | – | – | – | – | – | – | – | – | – | 0.93 ± 0.012 | 730.52 ± 0.16 | 0.864 ± 0.012 | 726.76 ± 0.16 | 0.806 ± 0.012 | 722.97 ± 0.16 | 0.755 ± 0.011 | 719.17 ± 0.16 | 0.709 ± 0.011 | 715.36 ± 0.17
4 | CCCCCCCCCCCC [dodecane] | 1.5 ± 0.015 | 749 ± 0.16 | 1.376 ± 0.014 | 745.38 ± 0.16 | 1.265 ± 0.013 | 741.75 ± 0.16 | 1.167 ± 0.013 | 738.12 ± 0.16 | 1.081 ± 0.013 | 734.48 ± 0.16 | – | – | – | – | – | – | – | – | – | –
5 | CCCCCCCCCCCC [dodecane] + CCCCC1CCCCC1 | – | – | – | – | – | – | – | – | – | – | 1.5 ± 0.015 | 749 ± 0.16 | 1.376 ± 0.014 | 745.38 ± 0.16 | 1.265 ± 0.013 | 741.75 ± 0.16 | 1.167 ± 0.013 | 738.12 ± 0.16 | 1.081 ± 0.013 | 734.48 ± 0.16
6 | CCCCCCC [heptane] | 0.421 ± 0.01 | 683.99 ± 0.17 | 0.398 ± 0.01 | 679.74 ± 0.18 | 0.378 ± 0.01 | 675.41 ± 0.18 | 0.352 ± 0.01 | 671.12 ± 0.18 | 0.337 ± 0.01 | 666.92 ± 0.18 | – | – | – | – | – | – | – | – | – | –
7 | CCCCCCC [heptane] + CCCCC1CCCCC1 | – | – | – | – | – | – | – | – | – | – | 0.421 ± 0.01 | 683.99 ± 0.17 | 0.398 ± 0.01 | 679.74 ± 0.18 | 0.378 ± 0.01 | 675.41 ± 0.18 | 0.352 ± 0.01 | 671.12 ± 0.18 | 0.337 ± 0.01 | 666.92 ± 0.18
8 | CCCCCCCCC [nonane] | 0.725 ± 0.011 | 717.88 ± 0.16 | 0.679 ± 0.011 | 714 ± 0.17 | 0.639 ± 0.011 | 710.1 ± 0.17 | 0.604 ± 0.011 | 706.19 ± 0.17 | 0.572 ± 0.011 | 702.26 ± 0.17 | – | – | – | – | – | – | – | – | – | –
9 | CCCCCCCCC [nonane] + CCCCC1CCCCC1 | – | – | – | – | – | – | – | – | – | – | 0.725 ± 0.011 | 717.88 ± 0.16 | 0.679 ± 0.011 | 714 ± 0.17 | 0.639 ± 0.011 | 710.1 ± 0.17 | 0.604 ± 0.011 | 706.19 ± 0.17 | 0.572 ± 0.011 | 702.26 ± 0.17
10 | CCCCCCCC [octane] | 0.546 ± 0.011 | 702.86 ± 0.17 | 0.521 ± 0.011 | 698.85 ± 0.17 | 0.49 ± 0.011 | 694.8 ± 0.17 | 0.467 ± 0.011 | 690.73 ± 0.17 | 0.442 ± 0.011 | 686.63 ± 0.17 | – | – | – | – | – | – | – | – | – | –
11 | CCCCCCCC [octane] + CCCCC1CCCCC1 | – | – | – | – | – | – | – | – | – | – | 0.546 ± 0.011 | 702.86 ± 0.17 | 0.521 ± 0.011 | 698.85 ± 0.17 | 0.49 ± 0.011 | 694.8 ± 0.17 | 0.467 ± 0.011 | 690.73 ± 0.17 | 0.442 ± 0.011 | 686.63 ± 0.17
12 | CCCCCCCCCCCCCC [tetradecane] | 2.329 ± 0.019 | 763.09 ± 0.15 | 2.096 ± 0.018 | 759.57 ± 0.15 | 1.898 ± 0.017 | 756.03 ± 0.15 | 1.729 ± 0.016 | 752.51 ± 0.16 | 1.584 ± 0.015 | 748.98 ± 0.16 | – | – | – | – | – | – | – | – | – | –
13 | CCCCCCCCCCCCCC [tetradecane] + CCCCC1CCCCC1 | – | – | – | – | – | – | – | – | – | – | 2.329 ± 0.019 | 763.09 ± 0.15 | 2.096 ± 0.018 | 759.57 ± 0.15 | 1.898 ± 0.017 | 756.03 ± 0.15 | 1.729 ± 0.016 | 752.51 ± 0.16 | 1.584 ± 0.015 | 748.98 ± 0.16
